Experimental data: patent publication US20260256799A1, “INHIBITORS FOR TREATING SOLID TUMOURS” (UNIVERSITY OF SOUTHAMPTON, priority 2023, published 2026)

Tested on: HNSCC and NSCLC CAF
Assay: Established myoCAF phenotype of CAF cultured ex vivo
Type: cell-based, human
Description: Human NSCLC cell line H441, HNSCC SCC25, murine cancer cell line TC-1 (lung), MC38 (colon) and human fetal foreskin fibroblasts HFFF2 were purchased from European Collection of Cell Cultures (Public Health England) or ATCC; HNSCC 5PT [32] were provided by l. Mackenzie (Queen Mary University of London, UK). HEK-293T cells and IMR90 lung fibroblasts were provided by Jesus Gil (Imperial College, London, UK). SCC25 were grown in Ham's F12:DMEM (1:1 ratio) medium with 10% FBS (Calbiochem) and 292 μg/ml L-Glutamine. 5PT were cultured in keratinocyte growth medium. HEK-293T, H441, MC38, HFFF2, IMR90 and primary fibroblasts were grown in DMEM supplemented with 10% FBS and 292 μg/ml L-Glutamine. Primary fibroblasts were isolated as previously used at early passage (p1-10). C57BL/6 murine normal lung and colon fibroblasts (MLF and MCF respectively) were grown at 3% oxygen. TC-1 were cultured in RPMI supplemented with 10% FBS and 292 μg/ml L-Glutamine. All cell cultures were routinely tested for mycoplasma contamination. All cells were cultured using standard cell culture plates/flasks (Corning). HFFF2 or IMR90 cells were transfected with 25 μM On-Target pool siRNA (Thermo Scientific/Dharmacon) using Oligofectamine reagent (Life Technologies) as described. Stable knockdown was performed using retro/lentiviral mediated transduction of shRNA plasmids, as previously described followed by cell selection using 1 μg/ml puromycin for 5-7 days. NOX4-inducible HEK-293 cells (kindly provided by Vincent Jaquet) were treated with 1 μg/ml doxycycline. Wild type and mutant (C2991L) ATM over-expression was carried out transfecting HFFF2 with Viafect (Promega) according to manufacturer's instructions and selected for 10 days with 4 mg/ml G418. p-Retrosuper-shATM (ATM #1:912) and pCDNA3.1-Flag-mut-ATM (C2991L; pTP1625 clone) were kindly provided by Yosef Shiloh and Tanya Paull respectively. pLKO.1 murine shATM (TRCN0000012643) and pCDNA3.1-Flag-wt-ATM (31985) were purchased from Sigma and Addgene respectively. 2 ng/ml TGF-3 (TGF-β1; R&D Systems; for 3 days) was used to induce myofibroblast differentiation. 10 ng/ml IL-1pR (R&D Systems) for 72 hours was used to induce iCAF differentiation. […] All the inhibitors were resuspended in DMSO. To trigger DDR activation and/or cell stress HFFF2 were either irradiated with 2-100Gy using 350Kv X-Ray Irradiation System (Faxitron), or treated with 100 ng/ml Neocarzinostatin for 2 hours (NCS; Sigma), with 2-10 mM H2O2(Fisher Scientific) or with 5 μg/ml Cisplatin (Sandoz) for 30 minutes.
Cells were lysed in ice-cold RIPA buffer [1% NP40, 150 mM NaCl, 25 mM Tris-HCl pH 7.5, 0.1% SDS, 1% Na-Deoxycolate, 1 mM EGTA, 1 mM EDTA, 1 mM Na-orthovanadate, 10 mM Na-fluoride, 2.5 mM Na-pyrophosphate, 1 mM p glycerophosphate+freshly added 1 mM PMSF, 20 mM N-Ethylmaleimide (NEM), 10 ng/ml Microcystin-LR, 0.12 μM Okadaic acid and phosphatase and protease inhibitor cocktails; all from Sigma]. Protein extracts were then centrifuged and supernatants quantified using Dc-Bio-Rad protein assay kit (Bio-Rad laboratories) as previously. For nuclear-cytoplasmic protein extraction, the inventors used NE-PER Reagents according to manufacturer's instructions (Thermofisher). Equal amounts of protein were electrophoresed either in reducing (+Dithiothreitol, DTT) or in non-reducing conditions in 3-8% or 4-12% SDS-PAGE gels and electro blotted as previously.

CN(C)CCCOc1ccc(-c2ccc3ncc4c(c3c2)n(C2CCOCC2)c(=O)n4C)cn1 [AZD0156]
myoCAF differentiation (reversal) (CAF E treated with AZD0156 for 5 days, Q-RT-PCR): reversed
reversal of myoCAF differentiation after AZD0156 treatment was discontinued (CAF E, 5 days AZD0156 then further 5 days without AZD0156): maintained
